# Laboratory results published in patent publication US20250255867A1 (Kadmon Corporation, LLC, priority 2022, published 2025).
# Conditions: Cohort 2 200 mg BID
smiles,measurement,value
"CC(C)NC(=O)COc1cccc(-c2nc(Nc3ccc4[nH]ncc4c3)c3ccccc3n2)c1 [Belumosudil, 2-{3-[4-(1H-indazol-5-ylamino)-2-quinazolinyl]phenoxy}-N-(propan-2-yl) acetamide]",Oedema: # Events,1
same,Oedema: Affected/At Risk,1/16
same,Oedema: Affected/At Risk (%),(6.25%)
same,Oesophageal ulcer: # Events,1
same,Oesophageal ulcer: Affected/At Risk,1/16
same,Oesophageal ulcer: Affected/At Risk (%),(6.25%)
same,Oral candidiasis: # Events,1
same,Oral candidiasis: Affected/At Risk,1/16
same,Oral candidiasis: Affected/At Risk (%),(6.25%)
same,Oropharyngeal pain: # Events,0
same,Oropharyngeal pain: Affected/At Risk,0/16
same,Oropharyngeal pain: Affected/At Risk (%),(0%)
same,Orthopnoea: # Events,0
same,Orthopnoea: Affected/At Risk,0/16
same,Orthopnoea: Affected/At Risk (%),(0%)
same,Osteonecrosis: # Events,0
same,Osteonecrosis: Affected/At Risk,0/16
same,Osteonecrosis: Affected/At Risk (%),(0%)
same,Osteopenia: # Events,1
same,Osteopenia: Affected/At Risk,1/16
same,Osteopenia: Affected/At Risk (%),(6.25%)
same,Osteoporosis: # Events,1
same,Osteoporosis: Affected/At Risk,1/16
same,Osteoporosis: Affected/At Risk (%),(6.25%)
same,Overdose: # Events,0
same,Overdose: Affected/At Risk,0/16
same,Overdose: Affected/At Risk (%),(0%)
same,Pain in extremity: # Events,3
same,Pain in extremity: Affected/At Risk,2/16
same,Pain in extremity: Affected/At Risk (%),(12.5%)
same,Pain: # Events,0
same,Pain: Affected/At Risk,0/16
same,Pain: Affected/At Risk (%),(0%)
same,Palpitations: # Events,0
same,Palpitations: Affected/At Risk,0/16
same,Palpitations: Affected/At Risk (%),(0%)
same,Paraesthesia: # Events,1
same,Paraesthesia: Affected/At Risk,1/16
same,Paraesthesia: Affected/At Risk (%),(6.25%)
same,Participants with TEAE,16 (100%) participants
same,Participants with TESAE,6 (38%) participants
same,Pericardial effusion: # Events,0
same,Pericardial effusion: Affected/At Risk,0/16
same,Pericardial effusion: Affected/At Risk (%),(0%)
same,Peripheral coldness: # Events,0
same,Peripheral coldness: Affected/At Risk,0/16
same,Peripheral coldness: Affected/At Risk (%),(0%)
same,Peripheral sensory neuropathy: # Events,1
same,Peripheral sensory neuropathy: Affected/At Risk,1/16
same,Peripheral sensory neuropathy: Affected/At Risk (%),(6.25%)
same,Phlebitis: # Events,1
same,Phlebitis: Affected/At Risk,1/16
same,Phlebitis: Affected/At Risk (%),(6.25%)
same,Photophobia: # Events,1
same,Photophobia: Affected/At Risk,1/16
same,Photophobia: Affected/At Risk (%),(6.25%)
same,Platelet count decreased: # Events,0
same,Platelet count decreased: Affected/At Risk,0/16
same,Platelet count decreased: Affected/At Risk (%),(0%)
same,Pleural effusion: # Events,0
same,Pleural effusion: Affected/At Risk,0/16
same,Pleural effusion: Affected/At Risk (%),(0%)
same,Pneumonia respiratory syncytial viral: # Events,1
same,Pneumonia respiratory syncytial viral: Affected/At Risk,1/16
same,Pneumonia respiratory syncytial viral: Affected/At Risk (%),(6.25%)
same,Pneumonia: # Events,3
same,Pneumonia: Affected/At Risk,3/16
same,Pneumonia: Affected/At Risk (%),(18.75%)
same,Pollakiuria: # Events,0
same,Pollakiuria: Affected/At Risk,0/16
same,Pollakiuria: Affected/At Risk (%),(0%)
same,Presyncope: # Events,3
same,Presyncope: Affected/At Risk,3/16
same,Presyncope: Affected/At Risk (%),(18.75%)
same,Productive cough: # Events,7
same,Productive cough: Affected/At Risk,2/16
same,Productive cough: Affected/At Risk (%),(12.5%)
same,Proteinuria: # Events,1
same,Proteinuria: Affected/At Risk,1/16
same,Proteinuria: Affected/At Risk (%),(6.25%)
same,Pruritus: # Events,4
same,Pruritus: Affected/At Risk,2/16
same,Pruritus: Affected/At Risk (%),(12.5%)
same,Pseudomonas infection: # Events,2
same,Pseudomonas infection: Affected/At Risk,1/16
same,Pseudomonas infection: Affected/At Risk (%),(6.25%)
same,Pulmonary mass: # Events,1
same,Pulmonary mass: Affected/At Risk,1/16
same,Pulmonary mass: Affected/At Risk (%),(6.25%)
same,Pyrexia: # Events,6
same,Pyrexia: Affected/At Risk,3/16
same,Pyrexia: Affected/At Risk (%),(18.75%)
same,Rash erythematous: # Events,1
same,Rash erythematous: Affected/At Risk,1/16
same,Rash erythematous: Affected/At Risk (%),(6.25%)
same,Rash maculo-papular: # Events,0
same,Rash maculo-papular: Affected/At Risk,0/16
same,Rash maculo-papular: Affected/At Risk (%),(0%)
same,Rash pustular: # Events,1
same,Rash pustular: Affected/At Risk,1/16
same,Rash pustular: Affected/At Risk (%),(6.25%)
same,Rash: # Events,1
same,Rash: Affected/At Risk,1/16
same,Rash: Affected/At Risk (%),(6.25%)
same,Red blood cells urine positive: # Events,1
same,Red blood cells urine positive: Affected/At Risk,1/16
same,Red blood cells urine positive: Affected/At Risk (%),(6.25%)
same,Renal failure: # Events,1
same,Renal failure: Affected/At Risk,1/16
same,Renal failure: Affected/At Risk (%),(6.25%)
same,Respiratory syncytial virus infection: # Events,1
same,Respiratory syncytial virus infection: Affected/At Risk,1/16
same,Respiratory syncytial virus infection: Affected/At Risk (%),(6.25%)
same,Respiratory tract infection fungal: # Events,0
same,Respiratory tract infection fungal: Affected/At Risk,0/16
same,Respiratory tract infection fungal: Affected/At Risk (%),(0%)
same,Respiratory tract infection: # Events,0
same,Respiratory tract infection: Affected/At Risk,0/16
same,Respiratory tract infection: Affected/At Risk (%),(0%)
same,Restless legs syndrome: # Events,1
same,Restless legs syndrome: Affected/At Risk,1/16
same,Restless legs syndrome: Affected/At Risk (%),(6.25%)
same,Rosacea: # Events,1
same,Rosacea: Affected/At Risk,1/16
same,Rosacea: Affected/At Risk (%),(6.25%)
same,"SAE Abdominal wall haematoma, # events",0
same,"SAE Abdominal wall haematoma, affected/at risk",0/16
same,"SAE Acute kidney injury, # events",1
same,"SAE Acute kidney injury, affected/at risk",1/16
same,"SAE Acute lymphocytic leukaemia recurrent, # events",0
same,"SAE Acute lymphocytic leukaemia recurrent, affected/at risk",0/16
same,"SAE Acute respiratory failure, # events",0
same,"SAE Acute respiratory failure, affected/at risk",0/16
same,"SAE Anaphylactic reaction, # events",0
same,"SAE Anaphylactic reaction, affected/at risk",0/16
same,"SAE Bacteraemia, # events",1
same,"SAE Bacteraemia, affected/at risk",1/16
same,"SAE Cardiac arrest, # events",0
same,"SAE Cardiac arrest, affected/at risk",0/16
same,"SAE Cellulitis, # events",1
same,"SAE Cellulitis, affected/at risk",1/16
same,"SAE Chronic graft versus host disease in skin, # events",1
same,"SAE Chronic graft versus host disease in skin, affected/at risk",1/16
same,"SAE Citrobacter infection, # events",1
same,"SAE Citrobacter infection, affected/at risk",1/16
same,"SAE Dyspnoea, # events",1
same,"SAE Dyspnoea, affected/at risk",1/16
same,"SAE Embolism, # events",1
same,"SAE Embolism, affected/at risk",1/16
same,"SAE Febrile neutropenia, # events",0
same,"SAE Febrile neutropenia, affected/at risk",0/16
same,"SAE Graft versus host disease in lung, # events",0
same,"SAE Graft versus host disease in lung, affected/at risk",0/16
same,"SAE Hypoxia, # events",0
same,"SAE Hypoxia, affected/at risk",0/16
same,"SAE Influenza A virus test positive, # events",0
same,"SAE Influenza A virus test positive, affected/at risk",0/16
same,"SAE Influenza like illness, # events",0
same,"SAE Influenza like illness, affected/at risk",0/16
same,"SAE Lacunar infarction, # events",1
same,"SAE Lacunar infarction, affected/at risk",1/16
same,"SAE Leukaemia recurrent, # events",0
same,"SAE Leukaemia recurrent, affected/at risk",0/16
same,"SAE Lipomatosis, # events",0
same,"SAE Lipomatosis, affected/at risk",0/16
same,"SAE Metastases to meninges, # events",0
same,"SAE Metastases to meninges, affected/at risk",0/16
same,"SAE Muscular weakness, # events",1
same,"SAE Muscular weakness, affected/at risk",1/16
same,"SAE Myelodysplastic syndrome, # events",0
same,"SAE Myelodysplastic syndrome, affected/at risk",0/16
same,"SAE Non-cardiac chest pain, # events",2
same,"SAE Non-cardiac chest pain, affected/at risk",1/16
same,"SAE Obliterative bronchiolitis, # events",0
same,"SAE Obliterative bronchiolitis, affected/at risk",0/16
same,"SAE Pericardial effusion, # events",0
same,"SAE Pericardial effusion, affected/at risk",0/16
same,"SAE Pleural effusion, # events",0
same,"SAE Pleural effusion, affected/at risk",0/16
same,"SAE Pneumonia viral, # events",0
same,"SAE Pneumonia viral, affected/at risk",0/16
same,"SAE Pneumonia, # events",1
same,"SAE Pneumonia, affected/at risk",1/16
same,"SAE Pregnancy of partner, # events",0
same,"SAE Pregnancy of partner, affected/at risk",0/16
same,"SAE Proteinuria, # events",0
same,"SAE Proteinuria, affected/at risk",0/16
same,"SAE Respirovirus test positive, # events",1
same,"SAE Respirovirus test positive, affected/at risk",1/16
same,"SAE Small intestinal obstruction, # events",0
same,"SAE Small intestinal obstruction, affected/at risk",0/16
same,"SAE Stenotrophomonas infection, # events",1
same,"SAE Stenotrophomonas infection, affected/at risk",1/16
same,"SAE Urinary retention, # events",0
same,"SAE Urinary retention, affected/at risk",0/16
same,"SAE Urinary tract infection, # events",1
same,"SAE Urinary tract infection, affected/at risk",1/16
same,"SAE Varicella zoster virus infection, # events",0
same,"SAE Varicella zoster virus infection, affected/at risk",0/16
same,"SAE total, affected/at risk",6/16
same,Sinus pain: # Events,0
same,Sinus pain: Affected/At Risk,0/16
same,Sinus pain: Affected/At Risk (%),(0%)
same,Sinusitis: # Events,4
same,Sinusitis: Affected/At Risk,2/16
same,Sinusitis: Affected/At Risk (%),(12.5%)
same,Skin abrasion: # Events,0
same,Skin abrasion: Affected/At Risk,0/16
same,Skin abrasion: Affected/At Risk (%),(0%)
same,Skin lesion: # Events,1
same,Skin lesion: Affected/At Risk,1/16
same,Skin lesion: Affected/At Risk (%),(6.25%)
same,Skin papilloma: # Events,0
same,Skin papilloma: Affected/At Risk,0/16
same,Skin papilloma: Affected/At Risk (%),(0%)
same,Spinal compression fracture: # Events,0
same,Spinal compression fracture: Affected/At Risk,0/16
same,Spinal compression fracture: Affected/At Risk (%),(0%)
same,Squamous cell carcinoma of skin: # Events,2
same,Squamous cell carcinoma of skin: Affected/At Risk,2/16
same,Squamous cell carcinoma of skin: Affected/At Risk (%),(12.5%)
same,Stomatitis: # Events,1
same,Stomatitis: Affected/At Risk,1/16
same,Stomatitis: Affected/At Risk (%),(6.25%)
same,Superior vena cava syndrome: # Events,2
same,Superior vena cava syndrome: Affected/At Risk,1/16
same,Superior vena cava syndrome: Affected/At Risk (%),(6.25%)
same,Tachycardia: # Events,0
same,Tachycardia: Affected/At Risk,0/16
same,Tachycardia: Affected/At Risk (%),(0%)
same,Tendonitis: # Events,1
same,Tendonitis: Affected/At Risk,1/16
same,Tendonitis: Affected/At Risk (%),(6.25%)
same,Testicular pain: # Events,0
same,Testicular pain: Affected/At Risk,0/16
same,Testicular pain: Affected/At Risk (%),(0%)
same,Testicular swelling: # Events,0
same,Testicular swelling: Affected/At Risk,0/16
same,Testicular swelling: Affected/At Risk (%),(0%)
same,Thoracic spinal stenosis: # Events,0
same,Thoracic spinal stenosis: Affected/At Risk,0/16
same,Thoracic spinal stenosis: Affected/At Risk (%),(0%)
same,Thrombocytopenia: # Events,1
same,Thrombocytopenia: Affected/At Risk,1/16
same,Thrombocytopenia: Affected/At Risk (%),(6.25%)
same,Thrombocytosis: # Events,0
same,Thrombocytosis: Affected/At Risk,0/16
same,Thrombocytosis: Affected/At Risk (%),(0%)
same,Tinea pedis: # Events,1
same,Tinea pedis: Affected/At Risk,1/16
same,Tinea pedis: Affected/At Risk (%),(6.25%)
same,Tooth fracture: # Events,1
same,Tooth fracture: Affected/At Risk,1/16
same,Tooth fracture: Affected/At Risk (%),(6.25%)
same,Total Other Adverse Events: Affected/At Risk,16/16
same,Total Other Adverse Events: Affected/At Risk (%),(100%)
same,Transfusion reaction: # Events,0
same,Transfusion reaction: Affected/At Risk,0/16
same,Transfusion reaction: Affected/At Risk (%),(0%)
same,Tremor: # Events,2
same,Tremor: Affected/At Risk,1/16
same,Tremor: Affected/At Risk (%),(6.25%)
same,Type 2 diabetes mellitus: # Events,0
same,Type 2 diabetes mellitus: Affected/At Risk,0/16
same,Type 2 diabetes mellitus: Affected/At Risk (%),(0%)
same,Ulcerative keratitis: # Events,1
same,Ulcerative keratitis: Affected/At Risk,1/16
same,Ulcerative keratitis: Affected/At Risk (%),(6.25%)
same,Upper respiratory tract infection: # Events,13
same,Upper respiratory tract infection: Affected/At Risk,9/16
same,Upper respiratory tract infection: Affected/At Risk (%),(56.25%)
same,Upper-airway cough syndrome: # Events,2
same,Upper-airway cough syndrome: Affected/At Risk,2/16
same,Upper-airway cough syndrome: Affected/At Risk (%),(12.5%)
